Measurements taken from patent US20260177565A1, “INHIBITOR FOR GLUCOSE UPTAKE INTO RED BLOOD CELLS, SUPPRESSANT FOR GLUCOSE CONCENTRATION REDUCTION IN BLOOD-COLLECTING TUBE, AND BLOOD-COLLECTING TUBE INCLUDING SAME” (THE UNIVERSITY OF TOKYO, priority 2022, published 2026).
“Also recorded” adds a separate entry of the source.

Test system: red blood cells
Assay: Fluorescently labeled glucose uptake into red blood cells (Glucose Uptake Assay Kit-Green)
Type: cell-based, human
Details: for uptake of fluorescently labeled glucose / fluorescence in red blood cells (in words): concentrations as in Table 5; for Fluorescence intensity of fluorescently labeled glucose uptake into red blood cells: control (PBS(−)) 613.5
Method: Blood collected in the blood collection tube B from a volunteer subject was centrifuged at 3000 rpm for 5 minutes within 10 minutes, and plasma was discarded to obtain fresh red blood cells. The red blood cells were washed with PBS(−) and used for the following tests (washed red blood cells).
The test substance was dissolved in the amount described in Table 5 with respect to 1 mL of PBS(−). On the other hand, 5 μL of washed red blood cells immersed in PBS(−) and allowed to stand for about 15 minutes were taken out into a test tube, 150 μL each of a test substance solution was added thereto, and this was heated at 37° C. for 15 minutes. Then, 2 μL of a dissolved probe reagent in a glucose uptake assay kit (Glucose Uptake Assay Kit-Green, Dojindo Laboratories Co., Ltd.) was added and heated at 37° C. for 45 minutes. The probe reagent was fluorescently labeled glucose (fluorescently labeled glucose), and a powdered reagent dissolved in 20 μL of DMSO was used.
After the immersion in the reagents of the glucose uptake assay was completed, red blood cells were washed 3 times with 150 μL of a cooled 50-fold diluted WI solution (prepared by diluting the solution provided with the assay reagent 50-fold with PBS(−) at 4° C.), and 150 μL of a cooled 50-fold diluted WI solution was further added and stirred, and then 20 μL of the solution was dropped onto a glass slide and spread over the slide. Slides were photographed with fluorescence microscope.
The remaining red blood cells were centrifuged to discard the supernatant, and 125 μL of water for injection was added to the remaining lower red blood cells to cause hemolysis. The fluorescence intensity of 100 μL of the supernatant obtained by centrifugation was measured using a microplate reader (MTP-800Lab, Corona Electric Co., Ltd.). The measurement conditions were an excitation light wavelength of […] and a measurement fluorescence wavelength of […].

Compound | uptake of fluorescently labeled glucose / fluorescence in red blood cells (in words) | Fluorescence intensity of fluorescently labeled glucose uptake into red blood cells (test substance 2 mg/mL in PBS(−)) | Fluorescence intensity of fluorescently labeled glucose uptake into red blood cells (test substance 1.5 mg/mL in PBS(−)) | Fluorescence intensity of fluorescently labeled glucose uptake into red blood cells (test substance 1.25 mg/mL in PBS(−))
OC[C@H]1O[C@@H](n2cnc3c(O)ncnc32)[C@H](O)[C@@H]1O [Inosine, inosine] | fluorescence in red blood cells was hardly observed; also recorded: strong inhibitory effect on the uptake of glucose in red blood cells | 6.4 |  | 
[F-].[Na+] [Sodium fluoride, sodium fluoride] | the degree of suppression of uptake was much lower than that of inosine |  | 255.1 | 
Nc1ncnc2c1ncn2[C@@H]1O[C@H](COP(=O)(O)OP(=O)(O)OP(=O)(O)O)[C@@H](O)[C@H]1O [ATP, adenosine triphosphate] | the degree of suppression of uptake was much lower than that of inosine |  |  | 163.3
